Measured values published in patent US11234960B2, “Compositions and methods for improving mitochondrial function and treating neurodegenerative diseases and cognitive disorders” (Amazentis SA, priority 2010, dated 2022).

Key:
Type in all cases: in vivo
[1] = test system: maternally separated mice; assay: Contextual fear conditioning in early-life stress mice; settings: early-life stressed mice
Description: (§1) At postnatal day 1, pups were culled to have 6 pups per mother. From postnatal day 1 to 14, unpredictable maternal separation (MS) of a period of 3 hours daily was carried out. Maternal separation was performed at random times (from 8 am to 2 pm) to avoid the habituation of the mother to the procedure. The protocol consisted of removing pups from their mother to another cage at room temperature for a 3 hour period, after which the pups were returned to their original nest. These groups are denoted as early-life stress in the figures. A control group of dam/pups was left undisturbed and is denoted in the figures as normal.
One week after maternal separation mice were separated into two groups. […]
Contextual fear conditioning was used to determine the effects of the ellagitannin punicalagin on the susceptibility of adult animals, subjected to early life stress, to anxiety. […] Animal behavior was monitored every 2 seconds throughout the duration of the experiment. The period that mice spent immobile in the chamber was considered as “freezing” and was scored throughout these periods. The time the mice spent immobile after the first shock was recorded for a 60 second period and expressed as a percentage. […]

[2] = test system: maternally separated mice; assay: Rotarod motor learning in early-life stress mice; settings: early-life stressed mice, 90 mg/kg/day (FIG. 44)
Description: as §1
One week after maternal separation mice were separated into two groups. One control group received the standard mouse chow diet (Untreated), while the other group received the ellagitannin punicalagin admixed into the food and designed to deliver a dose of 90 mg/kg/day to the mice. Treatment with the diet began 1 week after the termination of the maternal separation treatment. […]
To measure the effects of pomegranate-derived compounds on the negative cognitive impacts of maternal separation, effects on motor learning were assayed using the rotarod behavioral assay. […] The latency to fall was measured with a cutoff time of 300 sec. […]

[3] = test system: aged C. elegans (wild-type Bristol N2); assay: Oxygen consumption (Seahorse XF24) in aged C. elegans; settings: 10-day-old worms, 30 μM urolithin A in 0.1% DMSO, 30 minute period (FIGS. 25A, 25B)
Description: C. elegans strains were cultured at 20° C. on nematode growth media (NGM) agar plates seeded with E. coli strain OP50. Strain used was wild-type Bristol N2 provided by the Caenorhabditis Genetics Center (University of Minnesota). Urolithin A was dissolved in DMSO. Animals were exposed to compounds from eggs on plates seeded with live OP50 bacteria. Control plates were prepared with the corresponding concentration of DMSO (0.1%).
Measurement of oxygen consumption is a direct indicator of mitochondrial activity. The effect of urolithin A on mitochondrial activity in aged C. elegans (10 days old) was assessed by treating C. elegans with urolithin A for 10 days of adulthood, at which time oxygen consumption was measured using the Seahorse XF24 equipment (Seahorse Bioscience Inc., North Billerica, Mass.). 250 ten-day-old C. elegans were used per condition. […] Worms were transferred into 24-well standard Seahorse plates (#100777-004) (50 worms per well) and oxygen consumption was measured. The basal oxygen consumption of the worms was first measured over 30 minutes at 5 minute intervals (0 min, 5 min, 15 min, 20 min, 25 min and 30 min) with 5 replicates per interval. Respiration rates were normalized to the exact number of worms per well determined after the completion of the experiment using a stereomicroscope. […]

## O=C1O[C@H]2[C@@H]3OC(=O)c4cc(O)c(O)c(O)c4-c4c(O)c(O)c5oc(=O)c6c(c(O)c(O)c7oc(=O)c4c5c76)-c4c(cc(O)c(O)c4O)C(=O)OC[C@H]3OC(O)[C@@H]2OC(=O)c2cc(O)c(O)c(O)c2-c2c1cc(O)c(O)c2O (mixture of isomers) [punicalagin, 2,3 hexahydroxydiphenoyl-4,6-gallagylglucose]
[1]; 90 mg/kg/day in food, 60 second period (FIG. 42)
  freezing time after the first foot shock (anxiety level): decreased and normalized these elevated anxiety levels
[1]; 90 mg/kg/day, 12 days, reduced freezing between days 8 and 12 (FIG. 43)
  extinction of contextual recall (freezing as percent of day 1): faster extinction than untreated early-life stressed mice
[2]
  motor learning, latency to fall from rotarod: restored motor learning skills

## O=c1oc2cc(O)ccc2c2ccc(O)cc12 [urolithin A, 3,8-Dihydroxydibenzo-α-pyrone]
[3]
  uncoupled (FCCP) respiration, oxygen consumption AUC: significantly increased uncoupled respiration
